Source: ChEMBL document CHEMBL5365457, “Selective HDAC3 Inhibitors with Potent In Vivo Antitumor Efficacy against Triple-Negative Breast Cancer” (J Med Chem, 2023)

How the values were obtained:
[1] = Selectivity ratio of IC50 for cytotoxicity against human HCEC cells assessed as inhibition of cell growth to IC50 for cytotoxicity against human MCF7 cells assessed as inhibition of cell growth; type: toxicity, cell-based; conditions: HCEC cells versus MCF7 cells, read-out: Ratio IC50
[2] = Selectivity ratio of IC50 for cytotoxicity against human HEK293 cells assessed as inhibition of cell growth to IC50 for cytotoxicity against human MDA-MB-453 cells assessed as inhibition of cell growth; type: toxicity, cell-based; conditions: HEK293 cells versus MDA-MB-453 cells, read-out: Ratio IC50
MDA-MB-453 = assay: Cytotoxicity against human MDA-MB-453 cells assessed as inhibition of cell growth incubated for 72 hrs by MTT assay; type: functional, cell-based; conditions: MDA-MB-453, 72 h
MCF7 = assay: Cytotoxicity against human MCF7 cells assessed as inhibition of cell growth incubated for 72 hrs by MTT assay; type: functional, cell-based; conditions: MCF7, 72 h
[3] = Selectivity ratio of IC50 for cytotoxicity against human HCEC cells assessed as inhibition of cell growth to IC50 for cytotoxicity against human MDA-MB-231 cells assessed as inhibition of cell growth; type: toxicity, cell-based; conditions: HCEC cells versus MDA-MB-231 cells, read-out: Ratio IC50
4T1 = assay: Cytotoxicity against mouse 4T1 cells assessed as inhibition of cell growth incubated for 72 hrs by MTT assay; type: functional, cell-based; conditions: 4T1, 72 h
[4] = Cytotoxicity against human HCEC cells assessed as inhibition of cell growth incubated for 72 hrs by MTT assay; type: toxicity, cell-based; conditions: human, HCEC cells
[5] = Selectivity ratio of IC50 for cytotoxicity against human MCF-10A cells assessed as inhibition of cell growth to IC50 for cytotoxicity against human MCF7 cells assessed as inhibition of cell growth; type: toxicity, cell-based; conditions: MCF-10A cells versus MCF7 cells, read-out: Ratio IC50
[6] = Selectivity ratio of IC50 for cytotoxicity against human HEK293 cells assessed as inhibition of cell growth to IC50 for cytotoxicity against human MCF7 cells assessed as inhibition of cell growth; type: toxicity, cell-based; conditions: HEK293 cells versus MCF7 cells, read-out: Ratio IC50
MDA-MB-231 = assay: Cytotoxicity against human MDA-MB-231 cells assessed as inhibition of cell growth incubated for 72 hrs by MTT assay; type: functional, cell-based; conditions: MDA-MB-231, 72 h
[7] = Cytotoxicity against human HEK293 cells assessed as inhibition of cell growth incubated for 72 hrs by MTT assay; type: toxicity, cell-based
[8] = Selectivity ratio of IC50 for cytotoxicity against human HCEC cells assessed as inhibition of cell growth to IC50 for cytotoxicity against human MDA-MB-453 cells assessed as inhibition of cell growth; type: toxicity, cell-based; conditions: HCEC cells versus MDA-MB-453 cells, read-out: Ratio IC50
[9] = Selectivity ratio of IC50 for cytotoxicity against human MCF-10A cells assessed as inhibition of cell growth to IC50 for cytotoxicity against human MDA-MB-231 cells assessed as inhibition of cell growth; type: toxicity, cell-based; conditions: MCF-10A cells versus MDA-MB-231 cells, read-out: Ratio IC50
[10] = Selectivity ratio of IC50 for cytotoxicity against human MCF-10A cells assessed as inhibition of cell growth to IC50 for cytotoxicity against […] cells assessed as inhibition of cell growth; type: toxicity, cell-based; conditions: MCF-10A cells versus 4T1 cells, read-out: Ratio IC50
[11] = Cytotoxicity against human MCF-10A cells assessed as inhibition of cell growth incubated for 72 hrs by MTT assay; type: toxicity, cell-based
[12] = Selectivity ratio of IC50 for cytotoxicity against human MCF-10A cells assessed as inhibition of cell growth to IC50 for cytotoxicity against human MDA-MB-453 cells assessed as inhibition of cell growth; type: toxicity, cell-based; conditions: MCF-10A cells versus MDA-MB-453 cells, read-out: Ratio IC50
[13] = Selectivity ratio of IC50 for cytotoxicity against human HEK293 cells assessed as inhibition of cell growth to IC50 for cytotoxicity against human MDA-MB-231 cells assessed as inhibition of cell growth; type: toxicity, cell-based; conditions: HEK293 cells versus MDA-MB-231 cells, read-out: Ratio IC50
[14] = Selectivity ratio of IC50 for cytotoxicity against human HCEC cells assessed as inhibition of cell growth to IC50 for cytotoxicity against mouse 4T1 cells assessed as inhibition of cell growth; type: toxicity, cell-based; conditions: HCEC cells versus 4T1 cells, read-out: Ratio IC50
[15] = Selectivity ratio of IC50 for cytotoxicity against human HEK293 cells assessed as inhibition of cell growth to IC50 for cytotoxicity against mouse 4T1 cells assessed as inhibition of cell growth; type: toxicity, cell-based; conditions: HEK293 cells versus 4T1 cells, read-out: Ratio IC50

Row | Compound | selectivity ratio [1] | selectivity ratio [2] | IC50 (MDA-MB-453) [µM] | IC50 (MCF7) [µM] | selectivity ratio [3] | IC50 (4T1) [µM] | IC50 at 72 h [4] [µM] | selectivity ratio [5] | selectivity ratio [6] | IC50 (MDA-MB-231) [µM] | IC50 at 72 h [7] [µM] | selectivity ratio [8] | selectivity ratio [9] | selectivity ratio [10] | IC50 at 72 h [11] [µM] | selectivity ratio [12] | selectivity ratio [13] | selectivity ratio [14] | selectivity ratio [15]
1 | CCCCNNC(=O)c1cnc(Nc2ccccc2)cn1 | > 40 | > 40 | 5.18 | 1.14 | > 40 | 2.17 | 180 | > 40 | > 40 | 1.91 | 207 | > 40 | > 40 | > 40 | 138 | > 40 | > 40 | > 40 | > 40
2 | CCCNNC(=O)c1cnc(Nc2cccc3ccccc23)cn1 | > 40 | > 40 | 2.89 | 1.51 | > 40 | 0.94 | 126 | > 40 | > 40 | 1.74 | 116 | > 40 | > 40 | > 40 | 112 | > 40 | > 40 | > 40 | > 40
3 | CCCNNC(=O)c1cnc(N)cn1 | > 40 | > 40 | 2.43 | 0.99 | > 40 | 1.08 | 220 | > 40 | > 40 | 0.88 | 141 | > 40 | > 40 | > 40 | 139 | > 40 | > 40 | > 40 | > 40
4 | CCCCNNC(=O)c1cnc(N)cn1 | > 40 | > 40 | 3.33 | 1.81 | > 40 | 1.27 | 215 | > 40 | > 40 | 1.25 | 133 | > 40 | > 40 | > 40 | 118 | > 40 | > 40 | > 40 | > 40
5 | CCCCNNC(=O)c1cnc(NC(C)=O)cn1 | – | – | 7.94 | 1.65 | – | 2.74 | 187 | – | – | 3.05 | 229 | – | – | – | 106 | – | – | – | –
6 | CCCCNNC(=O)c1cnc(NC(=O)c2ccc3[nH]ccc3c2)cn1 | – | – | 4.05 | 2.44 | – | 1.43 | 130 | – | – | 1.69 | 107 | – | – | – | 105 | – | – | – | –
7 | CCCCNNC(=O)c1cnc(NC(=O)c2ccc3ncccc3c2)cn1 | > 40 | > 40 | 4.92 | 1.36 | > 40 | 2.92 | 234 | > 40 | > 40 | 2.84 | 264 | > 40 | > 40 | > 40 | 220 | > 40 | > 40 | > 40 | > 40
8 | CCCCNNC(=O)c1cnc(N2CCCCC2)cn1 | – | – | 6.79 | 1.87 | – | 3.86 | 119 | – | – | 2.93 | 101 | – | – | – | 104 | – | – | – | –
